The target of this assay is T1, TRPM7/ChaK1 kinase domain (purified recombinant ChaK1-cat) (Mus musculus, UniProt Q923J1).
T1 construct: Expression and purification of recombinant ChaK1 kinase domain was performed as described; made in house; host or cells: bacteria
T1 sequence (Q923J1 1592-1822 limits assumed): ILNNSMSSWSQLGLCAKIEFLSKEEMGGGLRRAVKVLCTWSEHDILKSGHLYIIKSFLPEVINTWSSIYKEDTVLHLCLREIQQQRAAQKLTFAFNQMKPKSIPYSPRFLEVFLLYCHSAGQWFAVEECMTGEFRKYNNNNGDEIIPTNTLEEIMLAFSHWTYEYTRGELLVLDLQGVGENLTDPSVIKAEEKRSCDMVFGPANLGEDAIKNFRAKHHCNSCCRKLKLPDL
Put plainly: ChaK1-cat kinase activity: phosphorylation of myelin basic protein with [γ-33P]ATP, SDS-PAGE and autoradiography. Type of assay: biochemical. How it is done:
The reaction was performed using purified recombinant ChaK1-cat and myelin basic protein. The samples were analyzed by SDS-PAGE and autoradiography; and
The bands corresponding to phosphorylated myelin basic protein (on the autoradiogram shown in B) were quantified using the Kodak 1D imaging program.
Protein samples were incubated in phosphorylation mixture consisting of 50 mM HEPES-KOH (pH 7.4), 10 mM MgCl2, 4 mM MnCl2, 0.5 mM CaCl2 (unless stated otherwise), 100 μM ATP, and 2 μCi of [γ-^33P]ATP (specific activity of 3000 Ci/mmol) with 0.1 μg of purified recombinant ChaK1. In assays involving annexin 0.5 μg of annexin was used. The reactions were run at 30° C. for 5 min and were terminated by incubation in an ice/water bath and addition of Laemmli sample buffer. Samples were boiled for 5 min and analyzed by SDS-PAGE and autoradiography.
We analyzed the sensitivity of ChaK1 to some known inhibitors of conventional protein kinases.

Experimental findings from patent publication US20090163578A1, “NOVEL MODIFICATION OF IMMUNOMODULATORY PROTEIN” (UNIVERSITY OF MEDICINE AND DENTISTRY OF NEW JERSEY, priority 2004, published 2009) are described below.

The IC50 is the midpoint of a concentration-inhibition curve.

In the case of `CC(=O)c1c(O)c(C)c(O)c(Cc2c(O)c3c(c(C(=O)/C=C/c4ccccc4)c2O)OC(C)(C)C=C3)c1O` [rottlerin], the IC50 is about 35 µM. In the case of `CN[C@@H]1C[C@H]2O[C@@](C)([C@@H]1OC)n1c3ccccc3c3c4c(c5c6ccccc6n2c5c31)C(=O)NC4` [staurosporine], for the setting “concentrations up to 0.1 mM (FIG. 6B)”, the “effect on the kinase activity of ChaK1” value was “does not have any effect”. Moreover, the “inhibitory effect on ChaK1” value (staurosporine even at the concentration of 100 μM (FIG. 6B)) is given as “did not produce any inhibitory effect”.
